Source: US12358951
Like-named read-outs stand apart in the source and are kept apart here.

Conditions: amide bond, THF

Structure (SMILES): CCCC[C@H]1C(=O)N(C)[C@@H](CC(C)C)C(=O)N[C@@H](C2CCCCC2)C(=O)N[C@@H](CNC(=O)OCc2ccccc2)C(=O)N[C@@H](COCCCNC(=O)OC(C)(C)C)C(=O)N[C@H](C)CN1CC1CC1
- ring closure, yield of all isomers (from CCCC[C@@H](C(=O)N(C)[C@@H](CC(C)C)C(=O)N[C@H](C(=O)N[C@@H](CNC(=O)OCc1ccccc1)C(=O)O)C1CCCCC1)N(CC1CC1)C[C@@H](C)NC(=O)[C@@H](N)COCCCNC(=O)OC(C)(C)C, HATU/DIPEA, 1.14 mM, 19.0 h): 30%

Structure (SMILES): CCCCCCN1C[C@@H](CCF)NC(=O)[C@H]([C@H](C)OCc2ccccc2)NC(=O)[C@H](CNC(=O)OCc2ccccc2)NC(=O)[C@H](C2CCCCC2)NC(=O)[C@H](CC(C)C)N(C)C(=O)[C@@H]1C
- ring closure, yield of all isomers (from CCCCCCN(C[C@H](N)CCF)[C@@H](C)C(=O)N(C)[C@@H](CC(C)C)C(=O)N[C@H](C(=O)N[C@@H](CNC(=O)OCc1ccccc1)C(=O)N[C@H](C(=O)O)[C@H](C)OCc1ccccc1)C1CCCCC1, HATU/DIPEA, 1.36 mM, 25.0 °C, 20.0 h): 43.4%

Structure (SMILES): CCCCCC[C@H]1OC[C@@H](C)NC(=O)[C@H](CNC(=O)OC(C)(C)C)NC(=O)[C@H](CNC(=O)OCc2ccccc2)NC(=O)[C@H](C2CCCCC2)NC(=O)[C@H](CC(C)C)N(C)C(=O)[C@@H]1C
- ring closure, yield of all isomers (from CCCCCC[C@@H](OC[C@@H](C)N)[C@@H](C)C(=O)N(C)[C@@H](CC(C)C)C(=O)N[C@H](C(=O)N[C@@H](CNC(=O)OCc1ccccc1)C(=O)N[C@@H](CNC(=O)OC(C)(C)C)C(=O)O)C1CCCCC1, HATU/DIPEA, 1.08 mM, 25.0 °C, 16.0 h): 55%

Structure (SMILES): CC[C@@H]1CN(CC2CCCC2)[C@@H](C)C(=O)N(C)[C@@H](CC(C)C)C(=O)N[C@@H](C2CCCCC2)C(=O)N[C@@H](CNC(=O)OCc2ccccc2)C(=O)N[C@@H]([C@H](C)OCc2ccccc2)C(=O)N1
- ring closure, yield of all isomers (from CC[C@@H](N)CN(CC1CCCC1)[C@@H](C)C(=O)N(C)[C@@H](CC(C)C)C(=O)N[C@H](C(=O)N[C@@H](CNC(=O)OCc1ccccc1)C(=O)N[C@H](C(=O)O)[C@H](C)OCc1ccccc1)C1CCCCC1, HATU, DIPEA, 1.24 mM, 25.0 °C, 2.5 h): 45.7%

Structure (SMILES): CCCCCC[C@H]1OC[C@@H](C)NC(=O)[C@H](COC2CC3(C2)CN(C(=O)OC(C)(C)C)C3)NC(=O)[C@H](CNC(=O)OCc2ccccc2)NC(=O)[C@H](C2CCCCCC2)NC(=O)[C@H](CCC)N(C)C(=O)[C@@H]1C
- ring closure, yield of all isomers (from CCCCCC[C@@H](OC[C@@H](C)N)[C@@H](C)C(=O)N(C)[C@@H](CCC)C(=O)N[C@H](C(=O)N[C@@H](CNC(=O)OCc1ccccc1)C(=O)N[C@@H](COC1CC2(C1)CN(C(=O)OC(C)(C)C)C2)C(=O)O)C1CCCCCC1, HATU, DIPEA, 1.35 mM, 25.0 °C, 2.5 h): 39%
